Experimental data as given in patent publication US20160159789A1, “SUBSTITUTED PYRAZOLOPYRIDINES” (BAYER PHARMA AKTIENGESELLSCHAFT, priority 2013, published 2016).

Molecular target: T1, human full-length MKNK1 (Homo sapiens, UniProt Q9BUB5, T385D)
T1 construct: purchased Carna Biosciences 02-145; host or cells: insect cells (baculovirus expression system)
Test: MKNK1 kinase high ATP assay (TR-FRET)
Format: biochemical
Conditions: high ATP (2 mM final), 15 min preincubation with enzyme, GST-MKNK1 (T344D)
Summary of the method: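 GST-tagged full-length human MKNK1 from insect cells, preincubated 15 min with compound at 22° C in HEPES pH 7.5/MgCl2/DTT buffer, then reacted 30 min with 2 mM ATP and 0.06 μM biotinylated peptide (final). Phosphopeptide detected by TR-FRET (anti-pS6 pSer236/Eu-ProteinG, streptavidin-XL665), 665/620 ratio normalised to no-enzyme and no-inhibitor controls.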

T1 sequence (Q9BUB5 1-424 isoform Q9BUB5-2 T344D): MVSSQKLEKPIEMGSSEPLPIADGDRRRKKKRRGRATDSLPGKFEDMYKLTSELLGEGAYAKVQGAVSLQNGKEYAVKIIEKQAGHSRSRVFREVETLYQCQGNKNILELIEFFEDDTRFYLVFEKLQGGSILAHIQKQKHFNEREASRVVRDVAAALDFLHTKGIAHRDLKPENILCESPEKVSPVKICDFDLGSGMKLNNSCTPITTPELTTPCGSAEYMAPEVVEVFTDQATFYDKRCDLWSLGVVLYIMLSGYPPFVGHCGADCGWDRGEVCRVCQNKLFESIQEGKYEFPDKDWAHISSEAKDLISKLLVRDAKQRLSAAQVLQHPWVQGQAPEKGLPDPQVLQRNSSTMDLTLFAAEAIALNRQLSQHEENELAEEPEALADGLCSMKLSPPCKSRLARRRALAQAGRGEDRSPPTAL

Structure (SMILES) | IC50
COc1nc2[nH]ncc2cc1Nc1ncnc2sc3c(c12)CC[C@H](C(=O)N1CC[C@@H](N(C)C)C1)C3 [Example 110, [(3R)-3-(Dimethylamino)pyrrolidin-1-yl]{(7S)-4-[(6-methoxy-1H-pyrazolo[3,4-b]pyridin-5-yl)amino]-5,6,7,8-tetrahydro[1]benzothieno[2,3-d]pyrimidin-7-yl}methanone] | 0.4 nM
CN1CCN(C(=O)C2CCc3c(sc4ncnc(Nc5cnc6[nH]ncc6c5)c34)C2)CC1 (racemic) [Example 25, (RS)-(4-Methylpiperazin-1-yl)[4-(1H-pyrazolo[3,4-b]pyridin-5-ylamino)-5,6,7,8-tetrahydro[1]benzothieno[2,3-d]pyrimidin-7-yl]methanone] | 13.8 nM
OCc1c[nH]c2ncnc(Nc3cnc4[nH]ncc4c3)c12 [Example 17, [4-(1H-Pyrazolo[3,4-b]pyridin-5-ylamino)-7H-pyrrolo[2,3-d]pyrimidin-5-yl]methanol] | 32.2 nM
CN1CCN(C(=O)C2CCc3c(sc4ncnc(Nc5cc6cn[nH]c6cn5)c34)C2)CC1 (racemic) [Example 26, (RS)-(4-Methylpiperazin-1-yl)[4-(1H-pyrazolo[3,4-c]pyridin-5-ylamino)-5,6,7,8-tetrahydro[1]benzothieno[2,3-d]pyrimidin-7-yl]methanone] | 38.2 nM
COc1nc2[nH]ncc2cc1Nc1ncnc2sc3c(c12)CC[C@H](C(=O)N1C[C@@H]2C[C@H]1CO2)C3 [Example 40] | 2.5 nM
CC(C)NC(=O)C1CCc2c(sc3ncnc(Nc4cc5cn[nH]c5cn4)c23)C1 (racemic) [Example 24, (RS)—N-(Propan-2-yl)-4-(1H-pyrazolo[3,4-c]pyridin-5-ylamino)-5,6,7,8-tetrahydro[1]benzothieno[2,3-d]pyrimidine-7-carboxamide] | 10.7 nM
COc1nc2[nH]ncc2cc1Nc1ncnc2[nH]c(C(=O)N(C)CCN(C)C)c(Br)c12 [Example 62, 5-Bromo-N-[2-(dimethylamino)ethyl]-4-[(6-methoxy-1H-pyrazolo[3,4-b]pyridin-5-yl)amino]-N-methyl-7H-pyrrolo[2,3-d]pyrimidine-6-carboxamide] | 12 nM
COc1nc2[nH]ncc2cc1Nc1ncnc2[nH]c(C(=O)N(C)CCCN(C)C)c(Br)c12 [Example 131, 5-Bromo-N-[3-(dimethylamino)propyl]-4-[(6-methoxy-1H-pyrazolo[3,4-b]pyridin-5-yl)amino]-N-methyl-7H-pyrrolo[2,3-d]pyrimidine-6-carboxamide] | 6.7 nM
CCOC(=O)c1cc2c(Nc3cnc4[nH]ncc4c3)ncnc2[nH]1 [Example 9, Ethyl 4-(1H-pyrazolo[3,4-b]pyridin-5-ylamino)-7H-pyrrolo[2,3-d]pyrimidine-6-carboxylate] | 3 nM
CN(C)C1CN(C(=O)[C@H]2CCc3c(sc4ncnc(Nc5cc6cn[nH]c6cn5)c34)C2)C1 [Example 140, 10 [3-(Dimethylamino)azetidin-1-yl][(7S)-4-(1H-pyrazolo[3,4-c]pyridin-5-ylamino)-5,6,7,8-tetrahydro[1]benzothieno[2,3-d]pyrimidin-7-yl]methanone] | 2.4 nM
CC(C)NC(=O)[C@H]1CCc2c(sc3ncnc(Nc4cc5cn[nH]c5cn4)c23)C1 [Example 80, (7S)—N-(Propan-2-yl)-4-(1H-pyrazolo[3,4-c]pyridin-5-ylamino)-5,6,7,8-tetrahydro[1]benzothieno[2,3-d]pyrimidine-7-carboxamide] | 23.9 nM
Cc1c[nH]c2ncnc(Nc3cnc4[nH]ncc4c3)c12 [Example 3, N-(5-Methyl-7H-pyrrolo[2,3-d]pyrimidin-4-yl)-1H-pyrazolo[3,4-b]pyridin-5-amine] | 25.9 nM
FC(F)(F)c1c[nH]c2ncnc(Nc3cc4cn[nH]c4cn3)c12 [Example 16, N-[5-(Trifluoromethyl)-7H-pyrrolo[2,3-d]pyrimidin-4-yl]-1H-pyrazolo[3,4-c]pyridin-5-amine] | 52.9 nM
